Drawing on US12612412B2, “Antiviral heterocyclic compounds” (Enanta Pharmaceuticals, Inc., priority 2021, dated 2026), this text covers EC50 for 40 compounds.

Where two headings read alike, the source gives them in different places.

Test [1] concerns genotype A, "Long" strain RSV. The test is described as follows: RSV-A assay (CPE protection in Hep-2 cells, ATPlite readout). The test is classed as cell-based, Human respiratory syncytial virus (HRSV). To be noted: human respiratory syncytial virus, MOI 0.1, CPE protection. The procedure, abridged:
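Hep-2, 8,000 cells/well, MOI 0.1 (PFU- or TCID50-based); 2-fold compound series, duplicates; 5 d incubation; ATPlite luminescence readout; EC50.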

In test [2] the test system is HMPV clinical isolate TN/1501/A1. As to the kind of experiment: HMPV antiviral assay Method-B (clinical isolate TN/1501/A1 in LLC-MK2 cells, ATP-Lite readout). The following applies: human metapneumovirus, LLC-MK2, 144 h, hMPV WT1501 (clinical isolate TN/1501/A1), 6 days. In kind it is cell-based, Human metapneumovirus (HMPV). The method, boiled down: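 EC50 derived by four-parameter logistic fit of percent cell health, measured by ATP-Lite luminescence and normalised to virus-only and uninfected-cell controls. Compounds run in duplicate from 10 μM top, 3-fold, 10 points. Infection: LLC-MK2 cells, MOI 0.014, 2 μg/mL final TPCK-trypsin, serum-free, 6 days at 37° C.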

Setting [3] is: genotype A “Long” strain RSV, read-out: Human RSV-A (“Long”).
[4] abbreviates: RSV-A Long strain, read-out: Human RSV-A (“Long”) EC50.

On to `COc1cc(C(=O)NC[C@](O)(c2cc3c(c(-c4ccc(Cl)c(F)c4F)n2)OC[C@]3(C)C(N)=O)C2CC2)cc2cc(Cl)c(C)nc12` [Example 687], for which the EC50 in test [1] (setting [3]) is less than 200 nM; in test [2], less than 500 nM.
Consider `COc1cc(C(=O)NC[C@](O)(c2cc3c(c(-c4ccc5c(c4)OCCO5)n2)OC[C@]3(C)C(N)=O)C(F)(F)F)cc2cn(C3CC3)nc12` [Example 973], for which the figures for the EC50 in test [1] (setting [4]) and in test [2] were more than 200 nM and more than 500 nM, respectively.
As to `Cc1cnc2c(Cl)cc(C(=O)NC[C@](O)(c3cc4c(c(-c5ccc(F)cc5Cl)n3)OC[C@]4(C)C(N)=O)C(F)(F)F)cc2c1` [Example 517], the results for the EC50 in test [1] (setting [3]) and in test [2] were less than 200 nM and less than 500 nM, respectively.
For `C[C@]1(C(N)=O)COc2c1cc([C@@](O)(CNC(=O)c1cc(Cl)c3nn(C4CC4)cc3c1)C1CC1)nc2-c1csc2c(F)cccc12` [Example 622], in that order: less than 200 nM and less than 500 nM.
For the compound `C[C@]1(C(N)=O)COc2c1cc([C@@](O)(CNC(=O)c1cc(Cl)c3nn(C4CC4)cc3c1)C(F)(F)F)nc2-c1cc(Cl)c(F)c(Cl)c1` [Example 673], the values for the EC50 in test [1] (setting [3]) and in test [2] were less than 200 nM and more than 500 nM, respectively.
For `COc1cc(C(=O)NC[C@](O)(c2cc3c(c(-c4ccc(F)c(F)c4F)n2)OC[C@]3(C)C(N)=O)C(F)(F)F)cc2cc(Cl)c(C)nc12` [Example 506], in that order: less than 200 nM and less than 500 nM.
As to `Cc1cnc2c(OC(F)F)cc(C(=O)NC[C@](O)(c3cc4c(c(-c5ccc(F)cc5)n3)OC[C@@]4(CF)C(N)=O)C3CC3)cc2c1` [Example 1057], the EC50 in test [1] (setting [4]) was more than 200 nM; in test [2], more than 500 nM.
Turning to `COc1cc(C(=O)NC[C@](O)(c2cc3c(c(-c4cc(F)c(F)cc4Cl)n2)OC[C@]3(C)C(N)=O)C2CC2)cc2cn(C(F)F)nc12` [Example 658], the EC50 was less than 200 nM in test [1] (setting [3]) and less than 500 nM in test [2].
In the case of `COc1cc(C(=O)NC[C@](O)(c2cc3c(c(-c4ccc(F)c(Cl)c4)n2)OC[C@@]3(CF)C(N)=O)C(F)(F)F)cc2cc(Cl)c(C)nc12` [Example 1046], the values for the EC50 in test [1] (setting [4]) and in test [2] were more than 200 nM and more than 500 nM, respectively.
`COc1cc(C(=O)NC[C@](O)(c2cc3c(c(-c4ccc(F)c(F)c4F)n2)OC[C@]3(C)C(N)=O)C(F)(F)F)cc2cc(C3CC3)nn12` [Example 507]: the EC50 was less than 200 nM in test [1] (setting [3]) and less than 500 nM in test [2].
In the case of `COc1cc(C(=O)NC[C@](O)(c2cc3c(c(-c4cc(Cl)ccc4F)n2)OC[C@]3(C)C(N)=O)C2CC2)cc2cn(C3(Cl)CC3)nc12` [Example 842], the EC50 was less than 200 nM in test [1] (setting [4]) and less than 500 nM in test [2].
For `COc1ccc(-c2nc([C@](O)(CNC(=O)c3cc(OC)c4nn(C5CC5)cc4c3)C(F)(F)F)cc3c2OC[C@]3(C)C(N)=O)cc1` [Example 923], in that order: more than 200 nM and more than 500 nM.
The matching figures for `COc1cc(C(=O)NC[C@](O)(c2cc3c(c(-c4ccc(F)c(Cl)c4F)n2)OC[C@]3(C)C(N)=O)C2CC2)cc2cc(C)c(Cl)nc12` [Example 1072]: less than 200 nM and less than 500 nM.
The matching figures for `COc1cc(C(=O)NC[C@](O)(c2cc3c(c(-c4cc(Cl)c(F)cc4F)n2)OC[C@]3(C)C(N)=O)C2(F)CC2)cc2cc(Br)c(C)nc12` [Example 1127]: less than 200 nM and less than 500 nM.
As to `Cc1cnc2c(OC(F)F)cc(C(=O)NC[C@](O)(c3cc4c(c(-c5ccc(F)cc5)n3)OC[C@]4(C)C(N)=O)C(F)(F)F)cc2c1` [Example 493], the EC50 in test [1] (setting [3]) is less than 200 nM; in test [2] it was less than 500 nM.
For `C[C@]1(C(N)=O)COc2c1cc([C@@](O)(CNC(=O)c1cc(OC3CC3)c3nc(C4CC4)cn3c1)C1CC1)nc2-c1ccc(F)c(Cl)c1F` [Example 560], in that order: less than 200 nM and less than 500 nM.
Take `C[C@]1(C(N)=O)COc2c1cc([C@@](O)(CNC(=O)c1ccc3nn(C4CC4)cc3c1)C1CC1)nc2-c1ccc(F)c(Br)c1F` [Example 1101]: the EC50 in test [1] (setting [4]) is less than 200 nM; in test [2], less than 500 nM.
Turning to `C[C@]1(C(N)=O)COc2c1cc([C@@](O)(CNC(=O)c1cc(OC3CC3)c3nn(C4(F)CC4)cc3c1)C(F)(F)F)nc2-c1cc(Cl)c(F)cc1F` [Example 615], the figures for the EC50 in test [1] (setting [3]) and in test [2] were less than 200 nM and less than 500 nM, respectively.
As for `COc1cc(C(=O)NC[C@](O)(c2cc3c(c(-c4ccc(F)c(Cl)c4)n2)OC[C@]3(CF)C(N)=O)C(F)(F)F)ccc1OC1CC1` [Example 1049], the figures for the EC50 in test [1] (setting [4]) and in test [2] were less than 200 nM and less than 500 nM, respectively.
The matching figures for `COc1ccc(-c2nc([C@@](O)(CNC(=O)c3cc(OC)c4nn(C5CC5)cc4c3)C(F)(F)F)cc3c2OC[C@]3(C)C(N)=O)cc1Cl` [Example 933]: less than 200 nM and more than 500 nM.
On to `COc1cc(C(=O)NC[C@](O)(c2cc3c(c(-c4ccc(F)c(F)c4Cl)n2)OC[C@]3(C)C(N)=O)C2CC2)cc2cc(C)cnc12` [Example 1195], for which the EC50 is less than 200 nM in test [1] (setting [4]) and less than 500 nM in test [2].
Take `COc1cc(C(=O)NC[C@](O)(c2cc3c(c(-c4ccc(F)c(Cl)c4)n2)OC[C@]3(C)C(N)=O)C2CC2)cc2cn(C3(F)CC3)nc12` [Example 836]: the EC50 is less than 200 nM in test [1] (setting [4]) and less than 500 nM in test [2].
In the case of `Cc1nn(-c2ccccc2)cc1C(=O)NC[C@](O)(c1cc2c(c(-c3ccc(F)cc3)n1)OC[C@]2(C)C(N)=O)C1CC1` [Example 486], the EC50 is less than 200 nM in test [1] (setting [3]) and more than 500 nM in test [2].
As to `C#Cc1ccc(-c2nc([C@@](O)(CNC(=O)c3cc(OC)c4nn(C5CC5)cc4c3)C(F)(F)F)cc3c2OC[C@]3(C)C(N)=O)cc1` [Example 982], the EC50 in test [1] (setting [4]) is less than 200 nM; in test [2], more than 500 nM.
Consider `C[C@]1(C(N)=O)COc2c1cc([C@@](O)(CNC(=O)c1cc(Cl)c3nn(C4CC4)cc3c1)C1CC1)nc2-c1cccc(F)c1Cl` [Example 1123], for which the EC50 in test [1] (setting [4]) is less than 200 nM; in test [2] it was less than 500 nM.
For the compound `COc1cc(C(=O)NC[C@](O)(c2cc3c(c(-c4ccc(F)c(C(F)(F)F)c4)n2)OC[C@]3(C)C(N)=O)C2CC2)cc2cn(C3CC3)nc12` [Example 871], the figures for the EC50 in test [1] (setting [4]) and in test [2] were less than 200 nM and less than 500 nM, respectively.
`Cc1cnc2c(OC(F)F)cc(C(=O)NC[C@](O)(c3cc4c(c(-c5ccc(F)c(Cl)c5)n3)OC[C@@]4(C(N)=O)C(F)F)C(F)(F)F)cc2c1` [Example 1009]: the EC50 was less than 200 nM in test [1] (setting [4]) and less than 500 nM in test [2].
For `Cc1cnc2c(OC(F)F)cc(C(=O)NC[C@](O)(c3cc4c(c(-c5ccc6c(c5)OC(F)(F)O6)n3)OC[C@]4(C)C(N)=O)C3(F)CC3)cc2c1` [Example 713], the EC50 is less than 200 nM in test [1] (setting [3]) and less than 500 nM in test [2].
For the compound `COc1cc(C(=O)NC[C@](O)(c2nc(-c3ccc(F)cc3)c3c(c2F)[C@@](C)(C(N)=O)CO3)C(F)(F)F)cc2cn(C3CC3)nc12` [Example 851], the values for the EC50 in test [1] (setting [4]) and in test [2] were less than 200 nM and less than 500 nM, respectively.
`COc1cc(C(=O)NC[C@](O)(c2cc3c(c(-c4ccc(F)c(Cl)c4)n2)OC[C@]3(C(N)=O)C(F)F)C(F)(F)F)cc2cc(Cl)c(C)nc12` [Example 1004]: the values for the EC50 in test [1] (setting [4]) and in test [2] were more than 200 nM and more than 500 nM, respectively.
In the case of `COc1cc(C(=O)NC[C@](O)(c2cc3c(c(-c4ccc(F)cc4)n2)OC[C@]3(C)C(N)=O)C2CC2)cc2cc(Br)cnc12` [Example 1125], the EC50 in test [1] (setting [4]) is less than 200 nM; in test [2] it was less than 500 nM.
`COc1cc(C(=O)NC[C@](O)(c2cc3c(c(-c4ccc(F)c(Cl)c4F)n2)OC[C@]3(C)C(N)=O)C2CC2)cc2cc(Br)cnc12` [Example 561]: the results for the EC50 in test [1] (setting [3]) and in test [2] were less than 200 nM and less than 500 nM, respectively.
For the compound `Cc1cnc2c(OC(F)F)cc(C(=O)NC[C@](O)(c3cc4c(c(-c5cc(Br)c(F)cc5F)n3)OC[C@]4(C)C(N)=O)C3CC3)cc2c1` [Example 1106], the EC50 in test [1] (setting [4]) is less than 200 nM; in test [2] it was less than 500 nM.
For `COc1cc(C(=O)NC[C@](O)(c2cc3c(c(-c4ccc5c(c4)OC(F)(F)O5)n2)OC[C@]3(C(N)=O)C(F)F)C2CC2)cc2cn(C3CC3)nc12` [Example 1010], in that order: more than 200 nM and more than 500 nM.
Turning to `C[C@]1(C(N)=O)COc2c1cc([C@@](O)(CNC(=O)c1cc(OCCF)c3nn(C4(F)CC4)cc3c1)C(F)(F)F)nc2-c1ccc(F)cc1` [Example 878], the EC50 is less than 200 nM in test [1] (setting [4]) and more than 500 nM in test [2].
For `COc1cc(C(=O)NC[C@](O)(c2cc3c(c(-c4ccc(F)c(Cl)c4)n2)OC[C@@]3(C(N)=O)C(F)F)C2CC2)cc2cn(C(F)F)nc12` [Example 1045], in that order: less than 200 nM and less than 500 nM.
The matching figures for `COc1cc(C(=O)NC[C@](O)(c2cc3c(c(-c4ccc5c(c4)C(F)(F)C(=O)N5)n2)OC[C@]3(C)C(N)=O)C(F)(F)F)cc2cn(C3CC3)nc12` [Example 995]: more than 200 nM and more than 500 nM.
The matching figures for `COc1cc(C(=O)NC[C@](O)(c2cc3c(c(-c4ccc(F)c(Cl)c4)n2)OC[C@]3(CF)C(N)=O)C(F)(F)F)cc2cn(C3CC3)nc12` [Example 1052]: less than 200 nM and less than 500 nM.
On to `COc1cc(C(=O)NC[C@](O)(c2cc3c(c(-c4ccc(F)cc4)n2)OC[C@]3(C)C(N)=O)C2CC2)cc2sc(C)nc12` [Example 728], for which the EC50 is less than 200 nM in test [1] (setting [3]) and less than 500 nM in test [2].
As to `COc1cc(C(=O)NC[C@](O)(c2nc(-c3ccc(F)cc3)c3c(c2F)[C@](C)(C(N)=O)CO3)C(F)(F)F)cc2cn(C(F)F)nc12` [Example 852], the EC50 is less than 200 nM in test [1] (setting [4]) and more than 500 nM in test [2].
